Results reported in patent US20260144796A1, “Compounds and Methods for Improving Health” (Acurx Pharmaceuticals, Inc., priority 2022, published 2026).
Values after ≈ are worked out from the molar mass of the structure shown. Where two headings read alike, the source gives them in different places.

Assays:
gut microbiome = experiment: Phase 1 healthy volunteer study, gut microbiome (metagenomics, qPCR); format: in vivo, human; conditions: for Proportion of isolated Firmicutes, Erysipelotrichaceae: baseline 2%; for Proportion of isolated Firmicutes, Other: baseline 4%; for Proportion of isolated Firmicutes, Lachnospiraceae: baseline 26%; for Proportion of isolated Firmicutes, Ruminococcaceae: baseline 68%
[1] = test system: C. difficile infection (CDI); experiment: Phase 2a CDI clinical trial, clinical outcome and safety; format: in vivo, human
Procedure: Phase 2a of this trial was an open label cohort of 10 subjects from study centers in the United States. In this cohort, 10 patients with diarrhea caused by mild or moderate C. difficile diagnosed via toxin EIA+ were treated with ibezapolstat 450 mg orally, twice daily for 10 days. […] Stool was collected during course of therapy and at follow up. Patient fecal samples were evaluated for C. difficile culture and microbiome changes. […] Favorable microbiome changes included overgrowth of Actinobacteria and Firmicutes phylum species while on therapy. These findings support that microbiome effects may be predictive of beneficial patient outcomes including low rates of recurrence. […] Safety evaluations included AE assessment, physical examination, vital signs, clinical laboratory tests (chemistry, hematology, and urinalysis), and electrocardiogramaty endpoints for all subjects were recorded including nature, frequency, and severity of AEs. AEs were assessed at each visit beginning from the time of enrollment and classified according to the Medical Dictionary for Regulatory Activities (MedDRA version 15.0). AE severity (mild, moderate, or severe) and causality (unrelated, possibly related, or probably related to the study medication) were assessed by the investigator at each site. Stool samples were cultured for C. difficile growth on a selective cycloserine-cefoxitin fructose agar (CCFA) at 37° C. under anaerobic conditions for 48 hours. (Gonzales-Luna A J, Carlson T J. Dotson K M, et al. […] Emerg Microbes Infect 2020; 9(1): 341-7). Isolates were determined to be C. difficile based on growth and morphology and confirmed by PCR for C. difficile toxin and tpi genes. C. difficile was strain typed using a PCR-based ribotyping method as previously described (Gonzales-Luna A J, Carlson T J, Dotson K M, et al. […] Emerg Microbes Infect 2020; 9(1):341-7). Minimum inhibitory concentrations (MICs) were determined for ibezapolstat by broth microdilution in 0.1% sodium taurocholate Brain Heart Infusion (BHI) media (Begum K, Basseres E, Miranda J. et al. […] Antimicrob Agents Chemother 2020; 64(8)). An intent-to-treat analysis of patients receiving at least one dose of ibezapolstat was conducted. Descriptive statistics were calculated for efficacy, safety/tolerability, and PK data generated using SAS version 9.4 software (SAS Institute, Inc Cary, NC, USA). Microbiome summary plots and data visualization was prepared using R software version 4.1.1 (R Core Team 2021, Vienna, Austria). (R Core Team (2013). R: A language and environment for statistical computing. R Foundation for Statistical Computing, Vienna, Austria.

Clostridium butyricum = experiment: microbe, parasite or virus in culture; format: cell-based
Clostridium tertium = experiment: MIC determination, stool Firmicute isolates; format: cell-based
Coprococcus sp = experiment: MIC determination, stool Firmicute isolates; format: cell-based; conditions: N=1
Enterococcus durans = experiment: MIC determination, stool Firmicute isolates; format: cell-based
Flavonifractor plautii = experiment: MIC determination, stool Firmicute isolates; format: cell-based; conditions: N=1
Longibaculum sp. = experiment: MIC determination, stool Firmicute isolates; format: cell-based; conditions: N=1
[2] = test system: certain Firmicutes (Lachnospiraceae and Lactobacilluseae); experiment: MIC, isolated gut microbiota species: certain Firmicutes; format: cell-based; conditions: inactive
Procedure: Strains plated onto blood agar (Hardy Diagnostics) with a 24-hour incubation at 37° C. in an anaerobic environment (Coy vinyl anaerobic chamber). After incubation, 3-5 well-isolated colonies were suspended into 5 mL of BHI broth (Criterion Media). The cultures were incubated in an anaerobic chamber for 24 hours to achieve a 0.5 McFarland Standard. […] Plates were allowed to dry in a sterile location. After drying, the plates were covered with foil to prevent any photo-damage to the hemin and placed in the anaerobic chamber for 1 hour to reduce the media. The broth culture was then spotted onto the plates and covered with foil. Plates were allowed to dry completely before inverting them for incubation for 48 hours. Plates were analyzed and MIC recorded.

[3] = healthy volunteers, 450 mg twice daily 10 days, day 3
[4] = healthy volunteers, 450 mg twice daily 10 days, day 5
[5] = healthy volunteers, 450 mg twice daily 10 days, day 8
[6] = healthy volunteers, 450 mg twice daily 10 days, day 10
[7] = healthy volunteers, 450 mg twice daily 10 days, day 12

O=c1[nH]c(NCc2ccc(Cl)c(Cl)c2)nc2ncn(CCN3CCOCC3)c12 [Ibezapolstat, 2-((3,4-dichlorobenzyl)amino)-7-(2-morpholinoethyl)-1,7-dihydro-6H-purin-6-one]
amount of C. coccoides (Clostridium cluster XIVa), qPCR (gut microbiome; healthy volunteers, 450 mg twice a day, over 12 days): increased | Proportion of isolated Firmicutes, Streptococcaceae (gut microbiome; [3]): 27% | Proportion of isolated Firmicutes, Veillonellaceae (gut microbiome; [3]): 3% | Proportion of isolated Firmicutes, Erysipelotrichaceae (gut microbiome; [3]): 4% | Proportion of isolated Firmicutes, Other (gut microbiome; [3]): 6% | Proportion of isolated Firmicutes, Lachnospiraceae (gut microbiome; [3]): 23% | Proportion of isolated Firmicutes, Ruminococcaceae (gut microbiome; [3]): 37% | Proportion of isolated Firmicutes, Streptococcaceae (gut microbiome; [4]): 43% | Proportion of isolated Firmicutes, Erysipelotrichaceae (gut microbiome; [4]): 7% | Proportion of isolated Firmicutes, Other (gut microbiome; [4]): 9% | Proportion of isolated Firmicutes, Lachnospiraceae (gut microbiome; [4]): 21% | Proportion of isolated Firmicutes, Ruminococcaceae (gut microbiome; [4]): 20% | Proportion of isolated Firmicutes, Lactobacilloae (gut microbiome; [5]): 12% | Proportion of isolated Firmicutes, Streptococcaceae (gut microbiome; [5]): 49% | Proportion of isolated Firmicutes, Erysipelotrichaceae (gut microbiome; [5]): 7% | Proportion of isolated Firmicutes, Other (gut microbiome; [5]): 9% | Proportion of isolated Firmicutes, Lachnospiraceae (gut microbiome; [5]): 16% | Proportion of isolated Firmicutes, Ruminococcaceae (gut microbiome; [5]): 7% | Proportion of isolated Firmicutes, Lactobacilloae (gut microbiome; [6]): 5% | Proportion of isolated Firmicutes, Streptococcaceae (gut microbiome; [6]): 41% | Proportion of isolated Firmicutes, Erysipelotrichaceae (gut microbiome; [6]): 18% | Proportion of isolated Firmicutes, Other (gut microbiome; [6]): 9% | Proportion of isolated Firmicutes, Lachnospiraceae (gut microbiome; [6]): 24% | Proportion of isolated Firmicutes, Ruminococcaceae (gut microbiome; [6]): 3% | Proportion of isolated Firmicutes, Lactobacilloae (gut microbiome; [7]): 6% | Proportion of isolated Firmicutes, Streptococcaceae (gut microbiome; [7]): 14% | Proportion of isolated Firmicutes, Erysipelotrichaceae (gut microbiome; [7]): 25% | Proportion of isolated Firmicutes, Other (gut microbiome; [7]): 5% | Proportion of isolated Firmicutes, Lachnospiraceae (gut microbiome; [7]): 47% | Proportion of isolated Firmicutes, Ruminococcaceae (gut microbiome; [7]): 4% | Actinobacteria abundance after starting treatment (gut microbiome; healthy volunteers, primarily Bifidobacteriales or Coriobacteriales, persisted for the entire dosing period): increased in abundance | microbiome profile of treated subjects (gut microbiome; phase 1 healthy volunteer study, treatment over 10 days, shotgun metagenomic sequencing): larger proportion of Actinobacteria and Firmicute Phylum | adverse event profile ([1]; 10 CDI patients, 450 mg orally twice daily 10 days): acceptable adverse event profile | clinical cure ([1]; 10 CDI patients, 450 mg orally twice daily 10 days, at day 12): 100% | sustained clinical cure ([1]; 10 CDI patients, 450 mg orally twice daily 10 days, at day 38): 100% | success rate ([1]; Phase 2a CDI clinical trial): 100% | eradication of colonic C. difficile ([1]; by day three of treatment): complete eradication | recurrences of infection ([1]; followed for recurrence for 28±2 days): no recurrences | MIC50 (Clostridium butyricum): 12.5 µg/mL (≈ 29.5 µM) | MIC (Clostridium butyricum; read-out: MIC Max, Clostridium butyricum, N=5): 100 µg/mL (≈ 236 µM) | MIC (Clostridium butyricum; read-out: MIC Min, Clostridium butyricum, N=5): 1.5 µg/mL (≈ 3.54 µM) | MIC (Clostridium butyricum; strain C. butyricum 1007): > 100 µg/mL | MIC (Clostridium butyricum; strain C. butyricum 1008): 1.5 µg/mL (≈ 3.54 µM) | MIC50 (Clostridium tertium): 12.5 µg/mL (≈ 29.5 µM) | MIC (Clostridium tertium; N=2, read-out: MIC Min): 3.12 µg/mL (≈ 7.38 µM) | MIC (Clostridium tertium; read-out: MIC Max): 12.5 µg/mL (≈ 29.5 µM) | MIC50 (Coprococcus sp): 25 µg/mL (≈ 59.1 µM) | MIC50 (Enterococcus durans; N=1): 100 µg/mL (≈ 236 µM) | MIC (Enterococcus durans; N=1, read-out: MIC Max): 100 µg/mL (≈ 236 µM) | MIC (Enterococcus durans; N=1, read-out: MIC Min): 100 µg/mL (≈ 236 µM) | MIC50 (Flavonifractor plautii): 25 µg/mL (≈ 59.1 µM) | MIC50 (Longibaculum sp.): 50 µg/mL (≈ 118 µM) | MIC [2]: > 64 µg/mL
